The values below come from article PMC11938014, “Development and Application of Small Molecule–Peptide Conjugates as Cathepsin K-Specific Covalent Irreversible Inhibitors in Human Osteoclast and Lung Cancer” (JACS Au, 2025).

In experiment [1] the test system is human osteoclasts. Briefly: TRAP staining, osteoclast number on bone slices. It is filed as cell-based. The settings on record: inhibitor 1 or 5 μM. The procedure: (§1) Figure 6 CTSK inhibition in human osteoclasts. (a) Scheme of the process of maturation of osteoclasts (OCs) derived from human monocytes in the presence of RANKL and M-CSF. (b) Representative pictures of bone resorption after incubation with human OCs treated with vehicle or inhibitors for 10–14 days. Bone resorption was observed by a toluidine blue stain. Increased staining indicates a higher number of resorption pits and greater bone resorption. (c) Quantitative analysis of pit formation in bone slices after incubation with OC treated with GD20 or ODN (1, 5 μM) relative to vehicle treated slices. […] (e) Quantification of osteoclasts number on bone slices after inhibitor treatment, detected by TRAP staining. […] The activity of CTSK in the cells was detected by 2 h labeling with a pan-cathepsin activity-based probe, GB123, followed by a fluorescence scan of the SDS-PAGE detecting CTSK attached to the probe; the red arrow points to the bands of CTSK (above 25 kDa). […]
Blood was taken in an aseptic nontouch technique from consented human volunteers that were bled from the median cubital vein using a 21G needle, by the Declaration of Helsinki. […] The whole bone slice was analyzed by generating a panoramic view of the slice using stitching of images taken with an 20× magnification. […] And again, bone slice slices were imaged as was described before and counted using ImageJ software. […]

Experiment [2] relates to human osteoclasts. Briefly: Bone resorption assay, pit formation on bone slices (toluidine blue). It is filed as cell-based. The settings on record: Osteoclast, compared to vehicle-treated OC. The procedure: The selective blockage of cellular CTSK activity allowed us to assess the effect of the inhibitors on bone resorption induced by osteoclasts (OCs) as an important step toward therapeutic application in osteoporosis, bone metastases, and other diseases associated with excessive bone resorption. Human OCs were derived from CD14+ monocytes that were extracted from healthy donors’ blood and treated with M-CSF and RANKL, as described in Abdallah et al.[46] The OC were grown on cortical bone slices over 14 days in the presence of the CTSK inhibitors to evaluate the impact of inhibitors on bone resorption; see scheme (Figure 6a).
as §1, with “(b) Representative pictures of bone resorption after incubation with human OCs treated with vehicle or inhibitors for 10–14 days. Bone resorption was observed by a toluidine blue stain. Increased staining indicates a higher number of resorption pits and greater bone resorption.” left out

Experiment [3] addresses T1, CTSB (Homo sapiens, UniProt P07858).
T1 construct: made in house
The experiment can be described thus: Kinetic evaluation of recombinant cathepsin inhibition, fluorogenic substrate Z-FR-AMC. Type of experiment: biochemical. On the procedure:
Cathepsin (0.4 nM, CatK) or 5 nM (CatS, CatB, and CatL) were each mixed with inhibitors before adding the fluorogenic substrate. The proteases were then reacted with their substrates, Z-RR-AMC (CatL) or Z-FR-AMC (CatS, CatB, and CatK), for 30 min at 37 °C in the phosphate buffer (100 mM Na2HPO4/NaH2PO4, 50 mM NaCl, 5 mM DTT, 0.1% PEG-6000, at pH 6). Reactions were done in 96-well black flat-bottom microplates (Greiner, Germany); fluorescence (Ex/Em 370 and 460 nm) was measured by a Tecan INFINITE M1000 pro plate reader (Tecan, Switzerland) in the presence of inhibitors or vehicle. For irreversible inhibitors, reaction data were analyzed by using the one-phase association formula in GraphPad Prism 9 software: Y = Y0 + (plateau – Y0) × (1 – exp(−K × X)), where Y0 and Y denote the fluorescence signals at times 0 and t, respectively, K represents the observed reaction rate kobs, and X signifies the […]. The inactivation rates at each inhibitor concentration were determined by subtracting the inactivation observed in the control sample: kobs – kctrl. The maximum inactivation rate (kinact) was derived as the asymptote from the equation Y = kinact × X/(Ki^app + X), where X represents the inhibitor concentration, Y is the observed inactivation rate for each X, and Ki^app is the apparent inhibition constant. Ki values were derived from IC50 or Ki^app using the equations Ki = Ki^app/(1 + […]) and IC50 = E0/2 + Ki^app, where Km represents the Michaelis–Menten constant, S denotes substrate concentration, and E0 indicates cathepsin concentration. The maximum inhibitor dose in the experiment was 50 μM. Measurements were conducted in multiple independent duplicates. Average values are listed.

Experiment [4] deals with T2, Recombinant human cathepsin S (Homo sapiens, UniProt P25774).
T2 construct: made in house
The experiment can be described thus: Recombinant cathepsin inhibition, gel-based competition with GB123 probe. The conditions noted are these: Figure 2, read-out: IC50 [μM] CTSS. Type of experiment: biochemical. The procedure:
In-gel fluorescence analysis was used to detect the residual activity of the cathepsins by applying pan-cathepsin probe GB123 to detect the stable enzyme–probe complex. This approach is used for testing inhibition and selectivity.[37],[41]
Recombinant human cathepsin L (0.5 μM), cathepsin B (0.5 μM), cathepsin K (0.5 μM), and cathepsin S (0.5 μM) were pretreated with different concentrations of inhibitors (GD compounds, odanacatib) for 1 h in reaction buffer (50 mM acetate, 2 mM dithiothreitol (DTT), and 5 mM MgCl2, pH 5.5) at 37 °C. GB123 (1 μM) was added and incubated with samples for 60 min at 37 °C.[37],[41] The reaction was stopped by the addition of sample buffer 4× (40% glycerol, 0.2 M Tris/HCl pH 6.8, 20% β-mercaptoethanol, 12% SDS, and 0.4 mg/mL bromophenol blue). Samples were then boiled, separated on a 12.5% SDS gel, and scanned for fluorescence by a Typhoon scanner FLA 9500 at excitation and emission wavelengths of 635 and 670 nm for GB123.

T2 sequence (P25774 115-331): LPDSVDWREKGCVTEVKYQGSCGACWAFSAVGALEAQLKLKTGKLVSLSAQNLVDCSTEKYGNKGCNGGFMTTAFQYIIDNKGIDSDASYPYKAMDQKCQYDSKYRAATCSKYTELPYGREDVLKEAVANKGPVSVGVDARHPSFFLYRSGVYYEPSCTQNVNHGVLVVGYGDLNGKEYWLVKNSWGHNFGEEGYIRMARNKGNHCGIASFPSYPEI

As for `CC(C)(F)C[C@H](N[C@@H](c1ccc(-c2ccc(S(C)(=O)=O)cc2)cc1)C(F)(F)F)C(=O)NC1(C#N)CC1` [ODN, odanacatib, reference compound], in experiment [1], the “osteoclast numbers on bone slices (TRAP)” value is reported as “increase”. This compound registered an inhibition at 5 µM in experiment [2] of 93 ± 1.45%.

As for `CC(C)C[C@H](N[C@@H](c1ccc(-c2ccc(S(C)(=O)=O)cc2)cc1)C(F)(F)F)C(=O)NCC(=O)COC(=O)[C@@H]1CCCN1C(=O)[C@H](CCC(N)=O)NC(=O)OCC1c2ccccc2-c2ccccc21` [GD38], the “type of inhibition, CTSB” value in experiment [3] is given as “irreversible”. Besides, in experiment [3] (irreversible inhibitor), the Ki was > 50 µM. In addition, in experiment [3] (read-out: kinact (at 50 μM), CTSB), the kinact stood at 0.0072 s⁻¹. For the same compound, the half-inhibitory concentration (IC50) in experiment [4] came out at 8.3 ± 2.3 µM.

Take `CC(C)C[C@H](N[C@@H](c1ccc(-c2ccc(S(C)(=O)=O)cc2)cc1)C(F)(F)F)C(=O)NCC(=O)COC(=O)[C@@H]1CCCN1C(=O)[C@H](CC(C)C)NC(=O)OCC1c2ccccc2-c2ccccc21` [GD20]: the “osteoclast numbers on bone slices (TRAP)” value in experiment [1] is recorded as “no significant alterations”. For the same compound, the Ki in experiment [3] (maximum inhibitor dose 50 μM) was > 50 µM. In addition, testing at 5 µM in experiment [2] gave an inhibition of 94 ± 1.57%. The half-maximal inhibitory concentration (IC50) in experiment [4] stood at 13 ± 2.8 µM.
